Laboratory results: patent US10294202B2, “Pyrrolidinones as herbicides” (FMC Corporation, priority 2013, dated 2019)

How the values were obtained:
pigweed = experiment: Test A pre-/postemergence herbicide test; type: in vivo, Amaranthus retroflexus; conditions: for Plant response rating, Pigweed: 0 to 100 scale
How it was run: (§1)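 Visual 0–100 ratings (100 = complete control) made about 10 days after treatment, greenhouse-held plants compared with untreated controls. Treatments: postemergence sprays on one- to two-leaf plants (2–10 cm tall) and preemergence directed soil sprays after planting in loam–sand, chemicals formulated in non-phytotoxic solvent containing surfactant.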

corn = experiment: Test A pre-/postemergence herbicide test; type: in vivo, Zea mays; conditions: Postemergence
How it was run: as §1

barnyardgrass [1] = experiment: Test C flooded paddy test; type: in vivo, Echinochloa crus-galli; conditions: Flood
How it was run: (§2)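 Visual ratings from 0, no effect, to 100, complete control, were made against untreated controls after 13–15 greenhouse days. Compounds had gone straight into paddy water 3 cm above the soil, kept at that depth, on 2-leaf-stage plants.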

ryegrass, Italian = experiment: Test A pre-/postemergence herbicide test; type: in vivo, Lolium multiflorum; conditions: for Plant response rating, Ryegrass, Italian: 0 to 100 scale
How it was run: as §1

sedge, umbrella = experiment: Test C flooded paddy test; type: in vivo, Cyperus difformis; conditions: Flood
How it was run: as §2

galium = experiment: Test A postemergence herbicide test; type: in vivo, Galium aparine
How it was run: (§3)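 Visual injury rating, 0 (no effect) to 100 (complete control), versus untreated controls ~10 days after treatment. Postemergence spray applied at one- to two-leaf stage, plants 2–10 cm tall, potted in loam soil/sand. Greenhouse-held.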

wheat = experiment: Test A pre-/postemergence herbicide test; type: in vivo, Triticum aestivum; conditions: Postemergence
How it was run: as §1

ragweed = experiment: Test A pre-/postemergence herbicide test; type: in vivo, Ambrosia elatior; conditions: for Plant response rating, Ragweed: 0 to 100 scale
How it was run: as §1

blackgrass = experiment: Test A postemergence herbicide test; type: in vivo, Alopecurus myosuroides
How it was run: as §3

kochia = experiment: Test A pre-/postemergence herbicide test; type: in vivo, Kochia scoparia; conditions: for Plant response rating, Kochia: 0 to 100 scale
How it was run: as §1

rice = experiment: Test C flooded paddy test; type: in vivo, Oryza sativa; conditions: Flood
How it was run: as §2

ducksalad = experiment: Test C flooded paddy test; type: in vivo, Heteranthera limosa; conditions: Flood
How it was run: as §2

barnyardgrass [2] = experiment: Test A pre-/postemergence herbicide test; type: in vivo, Echinochloa crus-galli
How it was run: as §1

giant foxtail = experiment: Test A pre-/postemergence herbicide test; type: in vivo, Setaria faberii; conditions: for Plant response rating, Foxtail, Giant: 0 to 100 scale
How it was run: as §1

[3] = Postemergence, 125 g ai/ha, 0 no effect, 100 complete control
[4] = Preemergence, 125 g ai/ha, visual rating on 0 to 100 scale (0 no effect, 100 complete control)
[5] = 125 g ai/ha, 0 to 100 scale, 0 no effect, 100 complete control
[6] = 500 g ai/ha, 0 to 100 scale (0 no effect, 100 complete control)
[7] = 125 g ai/ha, scale of 0 to 100 where 0 is no effect and 100 is complete control, 13 to 15 days

O=C1NCC(c2cccc(C(F)(F)F)c2)C1C(=O)Nc1nncs1 (racemic) [Compound 111]
30: Plant response rating, Ducksalad (ducksalad; 500 g ai/ha, scale 0 to 100)
40: Plant response rating, Ducksalad (ducksalad; 1000 g ai/ha, scale 0 to 100)
0: Plant response rating, Pigweed (pigweed; [3]) | Pigweed plant response rating (0 to 100 scale, 0 is no effect, 100 is complete control) (pigweed; Postemergence, 500 g ai/ha) | Pigweed plant response rating (pigweed; [4]) | Plant response rating, Pigweed (pigweed; preemergence, 500 g ai/ha) | Plant response rating, Corn (corn; [5]) | Plant response rating, Corn (corn; [6]) | Plant response rating, Barnyardgrass (barnyardgrass [1]; [7]) | Plant response rating, Barnyardgrass (barnyardgrass [1]; 250 g ai/ha, scale 0 to 100) | Plant response rating, Barnyardgrass (barnyardgrass [1]; 500 g ai/ha, scale 0 to 100) | Plant response rating, Barnyardgrass (barnyardgrass [1]; 1000 g ai/ha, scale 0 to 100) | Plant response rating, Ryegrass, Italian (ryegrass, Italian; [3]) | Ryegrass, Italian plant response rating (0 to 100 scale, 0 is no effect, 100 is complete control) (ryegrass, Italian; Postemergence, 500 g ai/ha) | Ryegrass, Italian plant response rating (ryegrass, Italian; [4]) | Plant response rating, Ryegrass, Italian (ryegrass, Italian; preemergence, 500 g ai/ha) | Plant response rating, Sedge, Umbrella (sedge, umbrella; [7]) | Plant response rating, Sedge, Umbrella (sedge, umbrella; 250 g ai/ha, scale 0 to 100) | Plant response rating, Sedge, Umbrella (sedge, umbrella; 500 g ai/ha, scale 0 to 100) | Plant response rating, Sedge, Umbrella (sedge, umbrella; 1000 g ai/ha, scale 0 to 100) | Plant response rating, Galium (galium; [5]) | Galium plant response rating (0 to 100 scale, 0 is no effect, 100 is complete control) (galium; 500 g ai/ha) | Plant response rating, Wheat (wheat; [5]) | Wheat plant response rating (0 to 100 scale, 0 is no effect, 100 is complete control) (wheat; 500 g ai/ha) | Plant response rating, Ragweed (ragweed; [3]) | Ragweed plant response rating (0 to 100 scale, 0 is no effect, 100 is complete control) (ragweed; Postemergence, 500 g ai/ha) | Ragweed plant response rating (ragweed; [4]) | Plant response rating, Ragweed (ragweed; preemergence, 500 g ai/ha) | Plant response rating, Blackgrass (blackgrass; [5]) | Plant response rating, Blackgrass (blackgrass; [6]) | Plant response rating, Kochia (kochia; [3]) | Kochia plant response rating (0 to 100 scale, 0 is no effect, 100 is complete control) (kochia; Postemergence, 500 g ai/ha) | Kochia plant response rating (kochia; [4]) | Plant response rating, Kochia (kochia; preemergence, 500 g ai/ha) | Plant response rating, Rice (rice; [7]) | Plant response rating, Rice (rice; 250 g ai/ha, scale 0 to 100) | Plant response rating, Rice (rice; 500 g ai/ha, scale 0 to 100) | Plant response rating, Rice (rice; 1000 g ai/ha, scale 0 to 100) | Plant response rating, Ducksalad (ducksalad; [7]) | Plant response rating, Ducksalad (ducksalad; 250 g ai/ha, scale 0 to 100) | Plant response rating, Barnyardgrass (barnyardgrass [2]; Postemergence, 125 g ai/ha, 0 to 100 scale, 0 no effect, 100 complete control) | Plant response rating, Barnyardgrass (barnyardgrass [2]; Postemergence, 500 g ai/ha, 0 to 100 scale (0 no effect, 100 complete control)) | Barnyardgrass plant response rating (barnyardgrass [2]; [4]) | Plant response rating, Barnyardgrass (barnyardgrass [2]; preemergence, 500 g ai/ha, 0 to 100 scale (0 no effect, 100 complete control)) | Plant response rating, Foxtail, Giant (giant foxtail; [3]) | Foxtail, Giant plant response rating (0 to 100 scale, 0 is no effect, 100 is complete control) (giant foxtail; Postemergence, 500 g ai/ha) | Foxtail, Giant plant response rating (giant foxtail; [4]) | Plant response rating, Foxtail, Giant (giant foxtail; preemergence, 500 g ai/ha)
